Test results as given in PubChem BioAssay (NCI).
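Following 48 hours of exposure in 96-well plates, responses at five concentrations were used to interpolate endpoints linearly. GI50: concentration for 50% inhibition of growth. The concentration for full growth arrest is given as TGI.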

Experiments:
Test in all cases: NCI-60 cell line screen, 48 h
SN12C renal = test system: SN12C renal
MOLT-4 leukemia = test system: MOLT-4 leukemia
U251 CNS = test system: U251 CNS
UACC-62 melanoma = test system: UACC-62 melanoma
SF-539 CNS = test system: SF-539 CNS
MALME-3M melanoma = test system: MALME-3M melanoma
ACHN renal = test system: ACHN renal
HOP-62 NSCLC = test system: HOP-62 NSCLC
A498 renal = test system: A498 renal
SW-620 colon = test system: SW-620 colon
EKVX NSCLC = test system: EKVX NSCLC
HCT-116 colon = test system: HCT-116 colon
K-562 leukemia = test system: K-562 leukemia
OVCAR-5 ovarian = test system: OVCAR-5 ovarian
MDA-MB-468 breast = test system: MDA-MB-468 breast
SK-MEL-28 melanoma = test system: SK-MEL-28 melanoma
NCI-H522 lung = test system: NCI-H522 lung
COLO 205 colon = test system: COLO 205 colon
CAKI-1 renal = test system: CAKI-1 renal
NCI-H460 lung = test system: NCI-H460 lung
UACC-257 melanoma = test system: UACC-257 melanoma
OVCAR-4 ovarian = test system: OVCAR-4 ovarian
IGROV1 ovarian = test system: IGROV1 ovarian
NCI/ADR-RES ovarian = test system: NCI/ADR-RES ovarian
SNB-75 CNS = test system: SNB-75 CNS
MDA-MB-435 = test system: MDA-MB-435
A549 NSCLC = test system: A549 NSCLC
786-0 renal = test system: 786-0 renal
OVCAR-3 ovarian = test system: OVCAR-3 ovarian
DU-145 prostate = test system: DU-145 prostate
NCI-H226 lung = test system: NCI-H226 lung
BT-549 breast = test system: BT-549 breast
LOX IMVI melanoma = test system: LOX IMVI melanoma
M14 melanoma = test system: M14 melanoma
RXF 393 renal = test system: RXF 393 renal
OVCAR-8 ovarian = test system: OVCAR-8 ovarian
RPMI-8226 leukemia = test system: RPMI-8226 leukemia
SK-MEL-5 melanoma = test system: SK-MEL-5 melanoma
SNB-19 CNS = test system: SNB-19 CNS
HS 578T breast = test system: HS 578T breast
NCI-H23 lung = test system: NCI-H23 lung
SF-295 CNS = test system: SF-295 CNS
SK-OV-3 ovarian = test system: SK-OV-3 ovarian
SF-268 CNS = test system: SF-268 CNS
MDA-MB-231 breast = test system: MDA-MB-231 breast
TK-10 renal = test system: TK-10 renal
HCT-15 colon = test system: HCT-15 colon
HOP-92 NSCLC = test system: HOP-92 NSCLC
HCC-2998 colon = test system: HCC-2998 colon
SK-MEL-2 melanoma = test system: SK-MEL-2 melanoma
KM12 colon = test system: KM12 colon
CCRF-CEM leukemia = test system: CCRF-CEM leukemia

Cc1cccc(-c2nc(Nc3cccc(S(N)(=O)=O)c3)c3ccccc3n2)c1
GI50 (SN12C renal): > 100 µM
TGI (SN12C renal): > 100 µM
GI50 (MOLT-4 leukemia): 4.1 µM
TGI (MOLT-4 leukemia): > 100 µM
GI50 (U251 CNS): 11.6 µM
TGI (U251 CNS): > 100 µM
GI50 (UACC-62 melanoma): > 100 µM
TGI (UACC-62 melanoma): > 100 µM
GI50 (SF-539 CNS): 6.2 µM
TGI (SF-539 CNS): 25.1 µM
GI50 (MALME-3M melanoma): > 100 µM
TGI (MALME-3M melanoma): > 100 µM
GI50 (ACHN renal): 7.93 µM
TGI (ACHN renal): > 100 µM
GI50 (HOP-62 NSCLC): > 100 µM
TGI (HOP-62 NSCLC): > 100 µM
GI50 (A498 renal): > 100 µM
TGI (A498 renal): > 100 µM
GI50 (SW-620 colon): 17.4 µM
TGI (SW-620 colon): > 100 µM
GI50 (EKVX NSCLC): > 100 µM
TGI (EKVX NSCLC): > 100 µM
GI50 (HCT-116 colon): 8.09 µM
TGI (HCT-116 colon): > 100 µM
GI50 (K-562 leukemia): 3.23 µM
TGI (K-562 leukemia): > 100 µM
GI50 (OVCAR-5 ovarian): > 100 µM
TGI (OVCAR-5 ovarian): > 100 µM
GI50 (MDA-MB-468 breast): 5.57 µM
TGI (MDA-MB-468 breast): > 100 µM
GI50 (SK-MEL-28 melanoma): > 100 µM
TGI (SK-MEL-28 melanoma): > 100 µM
GI50 (NCI-H522 lung): 5.69 µM
TGI (NCI-H522 lung): > 100 µM
GI50 (COLO 205 colon): > 100 µM
TGI (COLO 205 colon): > 100 µM
GI50 (CAKI-1 renal): 13.8 µM
TGI (CAKI-1 renal): > 100 µM
GI50 (NCI-H460 lung): 7.2 µM
TGI (NCI-H460 lung): 43 µM
GI50 (UACC-257 melanoma): > 100 µM
TGI (UACC-257 melanoma): > 100 µM
GI50 (OVCAR-4 ovarian): > 100 µM
TGI (OVCAR-4 ovarian): > 100 µM
GI50 (IGROV1 ovarian): > 100 µM
TGI (IGROV1 ovarian): > 100 µM
GI50 (NCI/ADR-RES ovarian): 7.08 µM
TGI (NCI/ADR-RES ovarian): > 100 µM
GI50 (SNB-75 CNS): > 100 µM
TGI (SNB-75 CNS): > 100 µM
GI50 (MDA-MB-435): > 100 µM
TGI (MDA-MB-435): > 100 µM
GI50 (A549 NSCLC): 10.9 µM
TGI (A549 NSCLC): > 100 µM
GI50 (786-0 renal): 8.53 µM
TGI (786-0 renal): > 100 µM
GI50 (OVCAR-3 ovarian): 9.42 µM
TGI (OVCAR-3 ovarian): > 100 µM
GI50 (DU-145 prostate): > 100 µM
TGI (DU-145 prostate): > 100 µM
GI50 (NCI-H226 lung): > 100 µM
TGI (NCI-H226 lung): > 100 µM
GI50 (BT-549 breast): > 100 µM
TGI (BT-549 breast): > 100 µM
GI50 (LOX IMVI melanoma): 4.76 µM
TGI (LOX IMVI melanoma): > 100 µM
GI50 (M14 melanoma): > 100 µM
TGI (M14 melanoma): > 100 µM
GI50 (RXF 393 renal): 6.23 µM
TGI (RXF 393 renal): > 100 µM
GI50 (OVCAR-8 ovarian): 9.82 µM
TGI (OVCAR-8 ovarian): > 100 µM
GI50 (RPMI-8226 leukemia): 7.66 µM
TGI (RPMI-8226 leukemia): > 100 µM
GI50 (SK-MEL-5 melanoma): > 100 µM
TGI (SK-MEL-5 melanoma): > 100 µM
GI50 (SNB-19 CNS): > 100 µM
TGI (SNB-19 CNS): > 100 µM
GI50 (HS 578T breast): > 100 µM
TGI (HS 578T breast): > 100 µM
GI50 (NCI-H23 lung): 30.6 µM
TGI (NCI-H23 lung): > 100 µM
GI50 (SF-295 CNS): 4.43 µM
TGI (SF-295 CNS): > 100 µM
GI50 (SK-OV-3 ovarian): > 100 µM
TGI (SK-OV-3 ovarian): > 100 µM
GI50 (SF-268 CNS): > 100 µM
TGI (SF-268 CNS): > 100 µM
GI50 (MDA-MB-231 breast): 6.52 µM
TGI (MDA-MB-231 breast): > 100 µM
GI50 (TK-10 renal): > 100 µM
TGI (TK-10 renal): > 100 µM
GI50 (HCT-15 colon): 3.53 µM
TGI (HCT-15 colon): > 100 µM
GI50 (HOP-92 NSCLC): 34.9 µM
TGI (HOP-92 NSCLC): > 100 µM
GI50 (HCC-2998 colon): 4.98 µM
TGI (HCC-2998 colon): > 100 µM
GI50 (SK-MEL-2 melanoma): > 100 µM
TGI (SK-MEL-2 melanoma): > 100 µM
GI50 (KM12 colon): 3.62 µM
TGI (KM12 colon): > 100 µM
GI50 (CCRF-CEM leukemia): 4.77 µM
TGI (CCRF-CEM leukemia): > 100 µM
